The conditions of series [1]: in vivo, 1-hydroxy (M3) metabolite; cited from earlier work.
Series [2] deals with severe ALS patients. The settings on record: disease onset of less than three years; cited from earlier work.
Series [3] deals with ALS patients. Conditions: enrollment of three years or less; cited from earlier work.
Series [4] concerns ALS patients. The settings on record: patients diagnosed two years or less; cited from earlier work.
Series [5] relates to ALS disease onset of between 3 and 36 months. Conditions: 30 mg, twice a day, 6-month study; cited from earlier work.
Series [6] has as its system human ALS patients. Conditions: 30 mg intravenously twice daily over 20 consecutive working days; cited from earlier work.
The test system of series [7] is ALS patients. Briefly: Fasudil treatment of patients with disease onset at least 24 months prior to treatment. The series is classed as in vivo, human. An excerpt:
This could not have been predicted from the trials with edaravone, above. […] (Liu 2016). The invention is based on the surprising discovery that orally-administered fasudil can treat ALS patients with disease onset of about two years or more prior treatment. These patients include but are not limited to patients with more advanced disease, but also includes slow-progressing patients.

Where two headings read alike, the source gives them in different places.

Take `O=S(=O)(c1cccc2c(O)nccc12)N1CCCNCC1` [M3, hydroxyfasudil]: the half-life entry in series [1] is given as “about 8 hours”.

Regarding `CC1=NN(c2ccccc2)C(=O)C1` [edaravone], in series [2], the “treatment effect between placebo and edaravone” value was “failed to demonstrate any treatment effect”. In addition, the primary endpoint result is “did not meet the primary endpoint” in series [3] and “met the primary endpoint” in series [4].

For `Cl.O=S(=O)(c1cccc2cnccc12)N1CCCNCC1` [Fasudil, Hexahydro-1-(5-isoquinolinesulfonyl)-1H-1,4-diazepine monohydrochloride hemihydrate], in series [5], the disease modification entry is on record as “did not result in any disease modification”. Also, the “outcome of compassionate use” value in series [6] is on record as “no conclusive results beyond safety”. Further, the benefit from treatment result in series [7] is “benefitted”.

The record behind these values is patent US20260014167A1, “Treating Amyotrophic Lateral Sclerosis Having Onset 24 Months Prior to Treatment” (Woolsey Pharmaceuticals, Inc., priority 2022, published 2026).
